ChEMBL document CHEMBL1667788, “Novel dammarane-type sapogenins from Panax ginseng berry and their biological activities” (Bioorg Med Chem Lett, 2011)

What was measured:
Assay type in all cases: functional, cell-based
[1] = test system: MCF7; assay: Cytotoxicity against human MCF7 cells after 72 hrs by MTT assay; settings: MCF7, 72 h
[2] = test system: HL-60; assay: Cytotoxicity against human HL60 cells after 72 hrs by MTT assay; settings: HL-60, 72 h
[3] = test system: COLO 205; assay: Cytotoxicity against human COLO205 cells after 72 hrs by MTT assay; settings: COLO 205, 72 h
[4] = test system: HepG2; assay: Cytotoxicity against human HepG2 cells after 72 hrs by MTT assay; settings: HepG2, 72 h
[5] = test system: A549; assay: Cytotoxicity against human A549 cells after 72 hrs by MTT assay; settings: A549, 72 h
[6] = test system: DU-145; assay: Cytotoxicity against human DU145 cells after 72 hrs by MTT assay; settings: DU-145, 72 h

| SMILES | IC50 [1] [µM] | IC50 [2] [µM] | IC50 [3] [µM] | IC50 [4] [µM] | IC50 [5] [µM] | IC50 [6] [µM] |
| --- | --- | --- | --- | --- | --- | --- |
| CC(C)[C@]12CC[C@](C)(O1)[C@H]1CC[C@]3(C)[C@@H]1[C@@H](C[C@@H]1[C@@]4(C)CC[C@H](O)C(C)(C)[C@@H]4CC[C@]13C)O2 | 49 | 42.4 | 70.7 | 64.1 |  |  |
| CC(C)(O)CCC[C@@](C)(O)[C@H]1CC[C@]2(C)[C@@H]1[C@H](O)C[C@@H]1[C@@]3(C)CC[C@H](O)C(C)(C)[C@@H]3CC[C@]12C | 34.2 | 8.03 | 18.9 | 45.8 | 29.9 |  |
| CC(C)=CCCC(C)(O)[C@H]1CC[C@]2(C)[C@@H]1[C@H](O)C[C@@H]1[C@@]3(C)CC[C@H](O)C(C)(C)[C@@H]3CC[C@]12C (single isomer, unassigned) | 6.62 | 27.1 | 49.2 | 39.4 | 99.9 | 60.4 |
| COC(C)(C)CCC[C@@](C)(O)[C@H]1CC[C@]2(C)[C@@H]1[C@H](O)C[C@@H]1[C@@]3(C)CC[C@H](O)C(C)(C)[C@@H]3CC[C@]12C | 8.34 | 8.48 | 14.2 | 8.32 | 35.6 | 11.8 |
